Measurements from patent US7691874B2, “Neuroprotective properties of dextrorotatory morphinans” (priority 2004, dated 2010).
Marks after values point to notes of the source that are not given here.

How the values were obtained:
σ1 receptors = σ1 receptors (Homo sapiens, UniProt Q99720); settings: cited from earlier work
MA-treated mice [1] = assay: Striatal dopamine and metabolites in MA-treated mice; type: in vivo; settings: for effect on MA-induced reductions in striatal DA, DOPAC and HVA: 24 mg/kg pretreatment; for Concentration DA in the striatum: 3 days after final MA
Source text: Mice were sacrificed at 3 days after final MA injection.

LPS-treated mice [2] = assay: Hypokinesia induced by intrastriatal LPS; settings: 12 or 24 mg/kg, twice before bilateral intrastriatal LPS
Protocol: Male mice were anesthetized with chloral hydrate (200 mg/kg, i.p.) and positioned in a small-animal stereotaxic apparatus. […] LPS (2 μg in a volume of 2 μl of PBS) was injected into both sides of the striatum over a period of 2 min, and the injection needle was kept in place for 2 min after the injection. Control animals received striatal injection with PBS.
Ten min after the last treatment with each drug, locomotor activity was measured for 30 min. After measuring the locomotor activity (i.e. 40 min after the last drug injection), the ‘absolute turn angular’ was analyzed in a 3-min monitoring period using an automated video-tracking system (Noldus Information Technology, Wagenin, The Netherlands) to examine locomotor patterns. […] Eight test boxes (40×40×30 cm high) were operated simultaneously by an IBM computer. Animals were studied individually during locomotion in each test box, where they were adapted for 10 min before starting the experiment. […] The distance traveled in cm by the animals in horizontal locomotor activity was analyzed (13, 25, 27). Data were collected and analyzed between 0900 and 1700 hr.

MA-treated mice [3] = assay: MA-induced behavioural sensitization; settings: morphinan 20 mg/kg i.p., last 3 days of wash-out (Ex. 3.12)
Protocol: Morphinans (20 mg/kg, i.p.) were administered last 3 days of wash-out period.

MA-treated mice [4] = assay: MA-induced hyperlocomotion; type: in vivo; settings: morphinan 20 mg/kg i.p. 30 min before MA 1 mg/kg i.p./day x 7
Protocol: FIGS. 39A-39D show effect of morphinans on the MA-induced hyperactivity in the mice. Each morphinan (20 mg/kg, i.p.) was administered 30 minutes prior to MA (1 mg/kg, i.p.). All treatments were performed for 7 days.

[5] = system: kainate or maximal electric shock; settings: kainate (24) or maximal electric shock (27); cited from earlier work
MA-treated mice [6] = assay: MA-induced FRA-IR in the striatum; settings: morphinan 20 mg/kg i.p.; MA 1 mg/kg i.p./day x 7
Protocol: Therefore, brains were removed and used for immunocytochemical analysis at 18 h after the final cocaine/MA treatment. The coronal sections containing striatum were processed for FRA immunocytochemistry. […] The FRA antibody was used at 1:2,000 as the optimal dilution. The FRA-IR in the striatum was calculated using image analysis systems with a polaroid digital microscopic camera (Optimas version 6.2).

LPS-treated mice [7] = assay: Striatal dopamine and metabolites in LPS-treated mice; type: in vivo; settings: for effect on LPS-induced reductions in striatal DA, DOPAC and HVA: 24 mg/kg pretreatment; for Concentration DA in the striatum: 3 weeks after LPS
Source text: (§1) Control animals received striatal injection with PBS.
Mice were sacrificed at 3 weeks after LPS treatment.

cocaine-treated mice [8] = assay: Cocaine-induced Fos-related antigen-immunoreactivity (FRA-IR) in the striatum; settings: cocaine 5 mg/kg; morphinan 20 mg/kg i.p.
cocaine-treated mice [9] = assay: Cocaine-induced hyperlocomotion; type: in vivo; settings: for effect on locomotor activity induced by low dose of cocaine: cocaine 5 mg/kg i.p. x 7 days, morphinan 15 or 30 mg/kg (DF 20 mg/kg) i.p.; for effect on hyperactivity induced by high dose of cocaine: cocaine 20 mg/kg i.p. x 7 days, morphinan 15 or 30 mg/kg i.p. 30 min before
Protocol: FIGS. 34A-34B show effect of morphinans on the cocaine-induced hyperactivity in the mice. Morphinans (15 and 30 mg/kg, i.p.) were administered 30 minutes prior to cocaine (5 and 20 mg/kg, i.p.). Central activity means relatively non-specific locomotor activity in the center of the box. Marginal activity means circling behaviors. All treatments were performed for 7 days.
FIGS. 35A-35D show effect of dimemorfan (DF) on cocaine-induced hyperactivity in the mice. DF (20 mg/kg, i.p.) was administered 30 minutes prior to cocaine (5 and 20 mg/kg, i.p.). All treatments were performed for 7 days.

MA-treated mice [10] = assay: Nigral TH-IR in MA-treated mice; settings: 24 mg/kg i.p.
MA-treated mice [11] = assay: Methamphetamine (MA)-induced hyperthermia; type: in vivo; settings: 24 mg/kg; MA 7.5 mg/kg i.p. x 4 at 2-h intervals
Protocol: Rectal temperature was recorded at 40 min after each MA treatment. […] Mice were sacrificed at 3 days after final MA injection.
FIGS. 10A-10B show effect of morphinans on the methamphetamine (MA)-induced hyperthermia. Mice received i.p. injections of MA (four injections of 7.5 mg/kg each) at 2-h intervals under the ambient temperature of 22.0±0.5° C. Temperatures were recorded at 40 min after each MA treatment (Arrow=MA injection).

MPTP-treated mice [12] = assay: Striatal dopamine and metabolites (HPLC-EC) in MPTP-treated mice; settings: for effect on MPTP-induced reductions in striatal DA, DOPAC and HVA: 24 mg/kg pretreatment; for Concentration DA in the striatum: mean ± S.E.M., 8 animals
Protocol: (§2) Each morphinan was administered 30 min prior to every injection of MPTP for last three days (from day 4th to day 7th). Animals were sacrificed 24 h after the last MPTP treatment.
Brains were rapidly removed and cut into 1 mm coronal sections on ice. The striatum was punched using a fine pasteur pipette (3, 21, 22), and stored at −70° C. DA and its metabolites, 3,4-dihydroxyphenylacetic acid (DOPAC) and homovanilic acid (HVA) were measured by HPLC-eletrochemical detection (3, 21, 22). Briefly, the striatum was homogenized in 0.2 M perchloric acid containing 3,4-dihydroxybenzylamine as an internal standard (10 mg wet weight of tissue per ml). The homogenate was centrifuged and a 20-μl aliquot of the supernatant was injected into the HPLC equipped with an ODS-C18 column. The mobile phase was comprised of 26 ml of acetonitrile, 21 ml of tetrahydrofuran and 960 ml of 0.15 M monochloroacetic acid (pH 3.0) containing 50 mg/l of EDTA and 200 mg/l of sodium octyl sulfate. The amount of DA, DOPAC and HVA were determined by comparison of peak height ratio of tissue sample with standards, and were expressed in nanograms per 100 mg of wet weight of tissue.
Each morphinan was administered 30 min before every injection of MPTP for last three days. Animals were sacrificed at 24 h after the last MPTP injection.

MA-treated mice [13] = assay: Hypokinesia induced by MA; type: in vivo; settings: 12 and 24 mg/kg; 3 days after final MA
C57 BL/6 mice [14] = assay: Locomotor activity and locomotor pattern following repeated administration of morphinans or PCP; type: in vivo; settings: for locomotor pattern (tracings): 40 mg/kg i.p. (PCP 5 mg/kg), FIG. 3; for marginal activity (circling behaviour; absolute turn angular): 20 or 40 mg/kg i.p./day x 7 (PCP 2.5 or 5 mg/kg), 3-min period; for marginal activity (circling behaviour; absolute turn angular) / locomotor activity (total distance moved): vs saline; for locomotor activity (total distance moved): 20 or 40 mg/kg i.p./day x 7 days, 30 min after final treatment
C57 BL/6 mice [15] = assay: Conditioned place preference (psychological dependence) following repeated administration of morphinans or PCP; type: in vivo; settings: 20 or 40 mg/kg i.p. (PCP 2.5 or 5 mg/kg); vs saline
Protocol: On day 14, the guillotine doors were raised. […] Data were analyzed between 0900 and 1700 hr.

[16] = system: NMDA receptor associated PCP sites; settings: cited from earlier work
MPTP-treated mice [17] = assay: Hypokinesia (reduction in locomotor activity) induced by MPTP; type: in vivo; settings: 12 or 24 mg/kg i.p. 30 min before MPTP (20 mg/kg/day x 7), last three days
MPTP-treated mice [18] = assay: Nigral tyrosine hydroxylase-like immunoreactivity in MPTP-treated mice; settings: 24 mg/kg i.p.
Protocol: as §2

LPS-treated mice [19] = assay: Nigral TH-IR in LPS-treated mice; type: in vivo; settings: 24 mg/kg i.p.
Source text: FIGS. 8A-8B. […] Magnification=40×.
as §1

[20] = morphinan 12 (mg/kg) + MA, mean ± S.E.M., 8 animals
[21] = morphinan 12 (mg/kg) + LPS, mean ± S.E.M., 8 animals

Sequence of σ1 receptors (Q99720 whole entry): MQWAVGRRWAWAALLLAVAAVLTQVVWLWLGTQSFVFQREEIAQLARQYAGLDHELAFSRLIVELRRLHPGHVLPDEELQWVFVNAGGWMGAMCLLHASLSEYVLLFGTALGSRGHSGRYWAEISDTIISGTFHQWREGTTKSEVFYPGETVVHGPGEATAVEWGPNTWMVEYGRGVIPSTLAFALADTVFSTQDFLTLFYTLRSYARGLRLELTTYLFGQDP

Structure (SMILES) | affinity for σ1 receptors (σ1 receptors) | effect on MA-induced reductions in striatal DA, DOPAC and HVA (MA-treated mice [1]) | Concentration DOPAC in the striatum (MA-treated mice [1]; morphinan 12 (mg/kg) + MA) [ng/100 mg wet tissue] | Concentration HVA in the striatum (MA-treated mice [1]; morphinan 12 (mg/kg) + MA) [ng/100 mg wet tissue] | Concentration DA in the striatum (MA-treated mice [1]; [20]) [ng/100 mg wet tissue] | Concentration DOPAC in the striatum (MA-treated mice [1]; morphinan 24 (mg/kg) + MA) | Concentration HVA in the striatum (MA-treated mice [1]; morphinan 24 (mg/kg) + MA) | Concentration DA in the striatum (MA-treated mice [1]; morphinan 24 (mg/kg) + MA) | effect on LPS-induced decrease in locomotor activity (LPS-treated mice [2]) | effect on MA-induced behavioural sensitization (MA-treated mice [3]) | effect on MA-induced hyperlocomotion (MA-treated mice [4]) | anticonvulsant effect [5] | effect on MA-induced FRA-IR in the striatum (MA-treated mice [6]) | effect on LPS-induced reductions in striatal DA, DOPAC and HVA (LPS-treated mice [7]) | Concentration DOPAC in the striatum (LPS-treated mice [7]; morphinan 12 (mg/kg) + LPS) [ng/100 mg wet tissue] | Concentration HVA in the striatum (LPS-treated mice [7]; morphinan 12 (mg/kg) + LPS) [ng/100 mg wet tissue] | Concentration DA in the striatum (LPS-treated mice [7]; [21]) [ng/100 mg wet tissue] | Concentration DOPAC in the striatum (LPS-treated mice [7]; morphinan 24 (mg/kg) + LPS) | Concentration HVA in the striatum (LPS-treated mice [7]; morphinan 24 (mg/kg) + LPS) | Concentration DA in the striatum (LPS-treated mice [7]; morphinan 24 (mg/kg) + LPS) | also measured
Cc1ccc2c(c1)[C@@]13CCCC[C@H]1[C@@H](C2)N(C)CC3 [DF, 3-methyl-17-methyl-morphinan] | high affinity ligands | significantly protected | 79 ± 11 | 79 ± 7 | 603 ± 65 | 94 ± 9^b ng/100 mg wet tissue | 92 ± 10^b ng/100 mg wet tissue | 762 ± 81^b ng/100 mg wet tissue | neither AM nor DF were effective in attenuating locomotor hypoactivity | significantly reduced | consistently effective in attenuating hyperlocomotion induced by MA | exhibited anticonvulsant effects | apparently attenuated | did not alter LPS-induced reductions in DA, DOPAC and HVA levels | 54 ± 7 | 62 ± 8 | 635 ± 65 | 59 ± 8 ng/100 mg wet tissue | 63 ± 7 ng/100 mg wet tissue | 459 ± 58 ng/100 mg wet tissue | effect on cocaine-induced FRA-IR in the striatum (cocaine-treated mice [8]): apparently attenuated; effect on locomotor activity induced by low dose of cocaine (cocaine-treated mice [9]): consistently attenuated locomotor activity induced by a low dose of cocaine; effect on hyperactivity induced by high dose of cocaine (cocaine-treated mice [9]): not uniform; effect on MA-induced decrease in nigral TH-positive cells (MA-treated mice [10]): significantly attenuated the decrease in TH-positive cells; effect on MA-induced hyperthermia (rectal temperature) (MA-treated mice [11]): attenuated by all morphinans used in this study; effect on MPTP-induced reductions in striatal DA, DOPAC and HVA (MPTP-treated mice [12]): did not alter reductions in DA, DOPAC and HVA; Concentration DOPAC in the striatum (MPTP-treated mice [12]; morphinan 12 (mg/kg) + MPTP): 44 ± 6 ng/100 mg wet tissue; Concentration HVA in the striatum (MPTP-treated mice [12]; morphinan 12 (mg/kg) + MPTP): 62 ± 7 ng/100 mg wet tissue; Concentration DA in the striatum (MPTP-treated mice [12]; morphinan 12 (mg/kg) + MPTP): 403 ± 55 ng/100 mg wet tissue; Concentration DOPAC in the striatum (MPTP-treated mice [12]; morphinan 24 (mg/kg) + MPTP): 52 ± 7 ng/100 mg wet tissue; Concentration HVA in the striatum (MPTP-treated mice [12]; morphinan 24 (mg/kg) + MPTP): 68 ± 6 ng/100 mg wet tissue; Concentration DA in the striatum (MPTP-treated mice [12]; morphinan 24 (mg/kg) + MPTP): 397 ± 55 ng/100 mg wet tissue; effect on MA-induced reduction in locomotor activity (MA-treated mice [13]): significantly prevented MA-induced reduction in locomotor activity; locomotor pattern (tracings) (C57 BL/6 mice [14]): did not produce significant marginal activity; marginal activity (circling behaviour; absolute turn angular) (C57 BL/6 mice [14]): did not significantly affect marginal activity; locomotor activity (total distance moved) (C57 BL/6 mice [14]): comparable to that with saline; conditioned place preference (CPP) (C57 BL/6 mice [15]): almost no CPP effects; affinity for NMDA receptor associated PCP sites [16]: very low affinities; effect on MPTP-induced reduction in locomotor activity (MPTP-treated mice [17]): neither AM nor DF affected significantly the locomotor hypoactivity
COc1ccc2c(c1)[C@@]13CCCC[C@H]1[C@@H](C2)N(C)CC3 [DM, 3-methoxy-17-methylmorphinan, reference compound] | high affinity ligands | significantly protected | 83 ± 9 | 82 ± 9 | 625 ± 74 | 98 ± 11^b ng/100 mg wet tissue | 94 ± 8^b ng/100 mg wet tissue | 782 ± 72^c ng/100 mg wet tissue | significantly prevented LPS-induced decrease in locomotor activity | did not alter behavioural sensitization by MA | did not affect MA (1 mg/kg, i.p./day×7)-induced hyperactivity | exhibited anticonvulsant effects | did not affect this induction of FRA-IR | significantly protected | 68 ± 7 | 82 ± 9 | 612 ± 76 | 105 ± 12^b ng/100 mg wet tissue | 98 ± 8^b ng/100 mg wet tissue | 892 ± 92^d ng/100 mg wet tissue | effect on cocaine-induced FRA-IR in the striatum (cocaine-treated mice [8]): Neither DM nor MM affects this induction of FRA-IR; effect on MPTP-induced decrease in nigral TH-positive cells (MPTP-treated mice [18]): significantly attenuated the decrease in TH-positive cells; effect on locomotor activity induced by low dose of cocaine (cocaine-treated mice [9]): enhanced locomotor activity produced by a low dose of cocaine; effect on hyperactivity induced by high dose of cocaine (cocaine-treated mice [9]): attenuated; effect on MA-induced decrease in nigral TH-positive cells (MA-treated mice [10]): significantly attenuated the decrease in TH-positive cells; effect on MA-induced hyperthermia (rectal temperature) (MA-treated mice [11]): attenuated by all morphinans used in this study; effect on LPS-induced reduction in nigral TH-positive cells (LPS-treated mice [19]): significantly attenuated the reduction in TH-positive cells; effect on MPTP-induced reductions in striatal DA, DOPAC and HVA (MPTP-treated mice [12]): significantly protected; Concentration DOPAC in the striatum (MPTP-treated mice [12]; morphinan 12 (mg/kg) + MPTP): 69 ± 9 ng/100 mg wet tissue; Concentration HVA in the striatum (MPTP-treated mice [12]; morphinan 12 (mg/kg) + MPTP): 82 ± 9 ng/100 mg wet tissue; Concentration DA in the striatum (MPTP-treated mice [12]; morphinan 12 (mg/kg) + MPTP): 520 ± 67 ng/100 mg wet tissue; Concentration DOPAC in the striatum (MPTP-treated mice [12]; morphinan 24 (mg/kg) + MPTP): 85 ± 10^b ng/100 mg wet tissue; Concentration HVA in the striatum (MPTP-treated mice [12]; morphinan 24 (mg/kg) + MPTP): 98 ± 11^b ng/100 mg wet tissue; Concentration DA in the striatum (MPTP-treated mice [12]; morphinan 24 (mg/kg) + MPTP): 708 ± 82^b ng/100 mg wet tissue; effect on MA-induced reduction in locomotor activity (MA-treated mice [13]): significantly prevented MA-induced reduction in locomotor activity; locomotor pattern (tracings) (C57 BL/6 mice [14]): produced marginal activity; marginal activity (circling behaviour; absolute turn angular) (C57 BL/6 mice [14]): significant increase in marginal activity; locomotor activity (total distance moved) (C57 BL/6 mice [14]): significantly increased locomotor activity; conditioned place preference (CPP) (C57 BL/6 mice [15]): also produced CPP; effect on MPTP-induced reduction in locomotor activity (MPTP-treated mice [17]): significantly prevented MPTP-induced reduction in locomotor activity
